US20020150540A1, “Allergen neutralization compositions containing aluminum ions” (priority 2001, published 2002)

Legend:
[1] = biological target: T1, Der f 1 (Dermatophagoides farinae, UniProt P16311); assay: ELISA efficacy determination protocol, allergen neutralization versus Der f 1; format: biochemical; conditions: for % of Allergen Neutralized: Versus Der f 1, 0.26 wt.% active ion in composition before sample preparation, pH 3.5, normalized to water control
T1 construct: Add 1.0 ml of 20 ug/ml Dermatophagoides farinae mite extract; from tissue; host or cells: Dermatophagoides farinae mite extract (crude)
T1 sequence (P16311 99-321): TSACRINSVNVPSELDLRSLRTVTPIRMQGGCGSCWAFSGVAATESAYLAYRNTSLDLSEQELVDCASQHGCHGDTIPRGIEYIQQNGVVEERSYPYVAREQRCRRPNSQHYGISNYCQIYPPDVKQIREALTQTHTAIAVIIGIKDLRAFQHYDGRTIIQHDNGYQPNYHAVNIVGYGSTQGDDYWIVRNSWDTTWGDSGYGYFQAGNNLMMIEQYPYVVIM
Text: (§1) The efficacy of an allergen neutralization composition can be determined by the ELISA protocol. Enzyme-linked immunosorbent assay (“ELISA”) is a highly sensitive assay technique for detection and measurement of antigens or antibodies in solution. The assay uses enzyme-linked antigens or antibodies to amplify an antigen-antibody reaction. A single enzyme-linked antibody-antigen complex can convert orders of magnitude more of colorless substrate molecules into detectable colored products, thus considerably amplifying the original antigen-antibody reaction. The antigen or antibody is adsorbed onto the surface of the well of a microtiter plate, and all the relevant reactions take place in solution inside the well. While the following protocol will be easily understood by those skilled in the art, for a more detailed explanation please see Konishi, E. and Uehara, K. Enzyme-linked immunosorbent assay for quantifying antigens of Dermatophagoides farinae and D. pteronyssinus (Acari: Pyroglyphidae) in house dust samples, 1990, Entomologist Society of America, 27 (6), p. 993-998.
(§2) It is understood that those skilled in the art of allergen suppression will be aware of numerous variations to the protocol given below. For example, the monoclonal antibody may be substituted with a similar antibody, for example Der f 1 for Der f 2. But a standard, in this case water, is used and the results for the samples that contain active ingredients are normalized against the standard and the results reported as percentage of allergen remaining. That is, the amount of allergen that is not neutralized. Thus, the allergen neutralization results for similar, but not identical antibodies should be substantially the same when normalized to the standard. Both Der f 1 and Der f 2 were tested for various compositions. Der f 1 was chosen as the standard for the present Efficacy Determination Protocol.
(§3) At least two samples are prepared. One sample contains only distilled water and samples of one or more allergen neutralization compositions containing the allergen neutralization active, for example Al2(SO4)3, tannin, etc. The samples are all treated according to the same protocol, and the distilled water sample is used as the control. All samples are prepared as follows:
(§4) 1) Add 1.0 ml of 20 ug/ml Dermatophagoides farinae mite extract to 0.8 ml of the sample composition (either the allergen neutralization composition or water for the control). Mix well and let sit for 1 hour at room temp.
(§5) 2) Add 2.2 ml of 20% skim milk in Phosphate Buffer Saline (PBS).
(§6) 3) Mix well by vortexing and centrifuge at 12000 rpm (approx. 17000×g) for 1 hour.
(§7) 4) The supernatant is used for the ELISA protocol.
(§8) Each well of a microplate is coated at 4° C. overnight with 100 μl of Der f 2 monoclonal antibody (clone 15E11, from Asahi Breweries., AB-A-4) at a protein concentration of 2 μg per ml of Phosphate Buffer Saline (PBS), pH 7.4 containing 0.1% sodium azide. The monoclonal antibody is discarded and the plate is incubated with 100 μl of 1% BSA PBS containing 0.1% sodium azide for 1 hour. The plate is washed 3 times with PBS containing 0.05% Tween 20 (PBS-T). 100 μl of an allergen sample is added and incubated for 1 hour at 37° C.
(§9) Use 3×dilutions of a reference Dermatophagoides farinae crude extract (commercially available from LSL) to make the standard curve. The curve is made using 6.9 nanogram-mite extract equivalent/ml to 5 microgram-mite extract equivalent/ml. Wash plate with PBS-T for 3 times. 100 μl of Horse Radish Peroxidase (HRP) conjugated anti Der f 2 antibody (clone 13A4) is added at 40 ng/ml and the plate is incubated at 37° C. for 1 hour. The plate is then washed with PBS-T 3 times and then washed with water 3 times. The wells are incubated with 100 μl of o-phenylene diamine at 2.0 mg/ml of 0.1M phosphate buffer (pH 6.2) containing 0.03% H2O2. The enzyme reaction is terminated by adding 50 μl of 2 M H2SO4.
(§10) The absorbance of the sample is read at 490 nm with a cell length of 1 cm. […]

[2] = biological target: T2, Der f 2 (Dermatophagoides farinae, UniProt Q00855); assay: ELISA efficacy determination protocol, allergen neutralization versus Der f 2; format: biochemical; conditions: 0.26 wt.% active ion in composition before sample preparation, pH 3.5, normalized to water control
T2 construct: Add 1.0 ml of 20 ug/ml Dermatophagoides farinae mite extract; from tissue; host or cells: Dermatophagoides farinae mite extract (crude)
T2 sequence (Q00855 18-146): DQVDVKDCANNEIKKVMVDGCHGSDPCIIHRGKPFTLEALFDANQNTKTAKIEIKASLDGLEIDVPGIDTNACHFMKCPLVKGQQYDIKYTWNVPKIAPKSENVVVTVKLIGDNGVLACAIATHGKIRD
Text: as §1, §2, §3, §4, §5, §6, §7, §8, §9, §10

Row | Molecule | % of Allergen Neutralized [1] | % of Allergen Neutralized [2] | performance at deactivating dust mite allergens ([1]; statement in words on Table I)
1 | O=S(=O)([O-])[O-].O=S(=O)([O-])[O-].O=S(=O)([O-])[O-].[Al+3].[Al+3] [Al2(SO4)3] | 66% | 6% | 
2 | CC(O)C(=O)[O][Al]([O]C(=O)C(C)O)[O]C(=O)C(C)O (stereo not shown) [Al Lactate, reference compound] | 30% | 17% | 
3 | O=[N+]([O-])[O-].O=[N+]([O-])[O-].O=[N+]([O-])[O-].[Al+3] [Al(NO3)3] | 93% | 50% | 
4 | [Cl][Al]([Cl])[Cl] [AlCl3] | 85% | 17% | 
5 | O=S(=O)([O-])[O-].O=S(=O)([O-])[O-].[Al+3].[K+] [AlK(SO4)2] | 65% | 23% | 
6 | aluminum chlorohydrate [Al(OH)Cl2, reference compound] | 59% | 3% | relatively poor performance
